Measurements: the NIST ThermoML archive (doi:10.1007/s10765-007-0346-0)

Assays:
[1] = xn = mol fraction of the nth substance listed; details: 101 kPa, Liquid, Capillary tube (Ostwald / Ubbelohde) method
[2] = 101.33 kPa, Liquid, Capillary tube (Ostwald / Ubbelohde) method

CCC(C)CC [3-methylpentane] + CCCCOCCCC
kinematic viscosity [m2/s], [1]
Details	283.15 K	298.15 K	313.15 K
x2 = 0.0498	5.151e-07	4.505e-07	4.026e-07
x2 = 0.1011	5.383e-07	4.655e-07	4.176e-07
x2 = 0.1884	5.796e-07	4.975e-07	4.427e-07
x2 = 0.2989	6.32e-07	5.415e-07	4.712e-07
x2 = 0.4033	6.843e-07	5.846e-07	5.031e-07
x2 = 0.4999	7.344e-07	6.244e-07	5.374e-07
x2 = 0.5992	7.877e-07	6.669e-07	5.73e-07
x2 = 0.7016	8.46e-07	7.116e-07	6.088e-07
x2 = 0.799	9.03e-07	7.548e-07	6.442e-07
x2 = 0.9001	9.657e-07	8.021e-07	6.804e-07
x2 = 0.9496	9.979e-07	8.257e-07	6.992e-07

CC(C)OC(C)C [diisopropyl ether]
[2]
Details	kinematic viscosity [m2/s]
283.15 K	4.959e-07
298.15 K	4.392e-07
313.15 K	3.861e-07

CC(C)OC(C)C [diisopropyl ether] + CCC(C)CC
[1], x1 = 1
Details	kinematic viscosity [m2/s]
283.15 K	4.959e-07
298.15 K	4.392e-07
313.15 K	3.861e-07

CCC(C)CC [3-methylpentane] + CC(C)OC(C)C
kinematic viscosity [m2/s], [1]
Details	283.15 K	298.15 K	313.15 K
x2 = 0	4.928e-07	4.366e-07	3.881e-07
x2 = 0.0498	4.914e-07	4.364e-07	3.872e-07
x2 = 0.1011	4.903e-07	4.355e-07	3.861e-07
x2 = 0.201	4.886e-07	4.348e-07	3.847e-07
x2 = 0.3018	4.877e-07	4.342e-07	3.837e-07
x2 = 0.4014	4.871e-07	4.339e-07	3.83e-07
x2 = 0.501	4.876e-07	4.338e-07	3.827e-07
x2 = 0.5993	4.883e-07	4.344e-07	3.831e-07
x2 = 0.6973	4.897e-07	4.352e-07	3.833e-07
x2 = 0.8014	4.912e-07	4.366e-07	3.842e-07
x2 = 0.8997	4.934e-07	4.377e-07	3.849e-07
x2 = 0.9501	4.947e-07	4.385e-07	3.854e-07

CCC(C)CC [3-methylpentane] + COC(C)(C)C
kinematic viscosity [m2/s], [1]
Details	283.15 K	298.15 K	313.15 K
x2 = 0.048	4.915e-07	4.361e-07	3.87e-07
x2 = 0.0967	4.906e-07	4.357e-07	3.859e-07
x2 = 0.1961	4.893e-07	4.348e-07	3.843e-07
x2 = 0.2982	4.895e-07	4.347e-07	3.836e-07
x2 = 0.3995	4.906e-07	4.351e-07	3.834e-07
x2 = 0.4983	4.923e-07	4.361e-07	3.836e-07
x2 = 0.5992	4.954e-07	4.379e-07	3.85e-07
x2 = 0.6984	4.995e-07	4.406e-07	3.863e-07
x2 = 0.7978	5.048e-07	4.435e-07	3.888e-07
x2 = 0.8996	5.113e-07	4.478e-07	3.918e-07
x2 = 0.9491	5.145e-07	4.502e-07	3.937e-07

COC(C)(C)C [2-methoxy-2-methylpropane] + CCCCCC
kinematic viscosity [m2/s], [1]
Details	283.15 K	298.15 K	313.15 K
x1 = 0.0479	5.097e-07	4.478e-07	4.017e-07
x1 = 0.0974	5.074e-07	4.465e-07	3.994e-07
x1 = 0.1983	5.034e-07	4.442e-07	3.96e-07
x1 = 0.2988	5.004e-07	4.427e-07	3.932e-07
x1 = 0.3979	4.99e-07	4.418e-07	3.91e-07
x1 = 0.4975	4.99e-07	4.413e-07	3.897e-07
x1 = 0.5974	4.996e-07	4.419e-07	3.895e-07
x1 = 0.6968	5.025e-07	4.431e-07	3.895e-07
x1 = 0.7911	5.059e-07	4.45e-07	3.913e-07
x1 = 0.8976	5.125e-07	4.484e-07	3.926e-07
x1 = 0.9486	5.147e-07	4.505e-07	3.94e-07
